Experiments:
wildtype K-Ras = molecular target: T1, wildtype K-Ras (Homo sapiens, UniProt P01116); assay: PPI-HTRF assay, wildtype K-Ras / SOS1 interaction; type: biochemical; conditions: HTRF, K-Ras wt; read-out: PPI-HTRF-5 nM (K-Ras wt IC50)
T1 construct: made in house; host or cells: E. coli, e.g. BL21 (DE3)
Outline: (§1)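 GST-tagged K-Ras (G12D, G12V, G12S or wildtype) with anti-GST-Eu(K) donor was mixed with His-hSOS1 and anti-6His-XL665 acceptor in HEPES pH 7.4 buffer with NaCl, DTT, BSA and Igepal. After about 10 min, HTRF was read (ex 337 nm, em 620/665 nm). IC50 came from the 665/620 ratio, with duplicates from 10 μM down to 0.01 μM.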

K-Ras G12V = molecular target: T2, K-Ras G12V (Homo sapiens, UniProt P01116, G12V); assay: PPI-HTRF assay, K-Ras G12V / SOS1 interaction; type: biochemical; conditions: HTRF, K-Ras G12V; read-out: PPI-HTRF-5 nM (K-Ras G12V IC50)
T2 construct: made in house; host or cells: E. coli, e.g. BL21 (DE3)
Outline: as §1

SW620 cells = assay: Ras cellular assay, cell proliferation SW620; type: cell-based; conditions: Homo sapiens, SW-620
Description: (§2) For example, this assay can be also used to assess selective growth inhibition of a mutant Ras protein relative to a wildtype, or relative to a different mutant Ras protein.

A549 cells = assay: Ras cellular assay, cell proliferation A549; type: cell-based; conditions: Homo sapiens
Procedure: as §2
A549 (ATCC CRL-185) and LS123 (ATCC CRL-255) cell lines comprise a G12S mutation and can be used to assess Ras cellular signaling in vitro, e.g., in response to treatment with a compound described herein. A549 culture medium is prepared with RPMI-1640 and 10% heat-inactivated FBS. LS123 culture medium is prepared with RPMI-1640 and 10% heat-inactivated FBS. A CellTiter-Glo (CTG) luminescent based assay (Promega) is used to assess growth of the cells, as a measurement of the ability of the compounds herein to inhibit Ras signaling in the cells. The cells (e.g., 800 per well) are seeded in their respective culture medium in standard tissue culture-treated 384-well format plates (Falcon #08-772-116) or ultra-low attachment surface 384-well format plates (S-Bio #MS-9384WZ). The day after plating, cells are treated with a dilution series (e.g., a 10 point, 3-fold dilution series) of the compounds herein (e.g., approximately 40 μL final volume per well). Cell viability can be monitored (e.g., approximately 6 days later) according to the manufacturer's recommended instructions, where CellTiter-Glo reagent is added (e.g., approximately 10 μL), vigorously mixed, covered, and placed on a plate shaker (e.g., approximately for 20 min) to ensure sufficient cell lysis prior to assessment of luminescent signal. The IC50 values are determined using the four parameter fit. The resulting IC50 value is a measurement of the ability of the test compound to reduce cell growth of Ras-driven cells (e.g., tumor cell lines) in vitro and/or in vivo.

K-Ras G12S = molecular target: T3, K-Ras G12S (Homo sapiens, UniProt P01116, G12S); assay: PPI-HTRF assay, K-Ras G12S / SOS1 interaction; type: biochemical; conditions: read-out: PPI-HTRF-5 nM (K-Ras G12S IC50)
T3 construct: made in house; host or cells: E. coli, e.g. BL21 (DE3)
Outline: as §1

GP2D cells = assay: Ras cellular assay, cell proliferation GP2D; type: cell-based
Procedure: as §2
ASPC-1 (ATCC CRL-1682), Panc-10.05 (ATCC CRL-2547), A427, GP2d cell lines or any other cell lines comprising a G12D mutation can be used to assess Ras cellular signaling in vitro, e.g., in response to a compound described herein. For example, ASPC-1 culture medium is prepared with RPMI-1640 and 10% heat-inactivated FBS. Panc-10.05 culture medium is prepared with RPMI-1640, 10 Units/mL human recombinant insulin, and 10% FBS. A427 cell culture is prepared with RPMI-1640 and 10% heat-inactivated FBS. A CellTiter-Glo (CTG) luminescent based assay (Promega) is used to assess growth of the cells, as a measurement of the ability of the compounds herein to inhibit Ras signaling in the cells. The cells (e.g., 800 per well) are seeded in their respective culture medium in standard tissue culture-treated 384-well format plates (Falcon #08-772-116) or ultra-low attachment surface 384-well format plates (S-Bio #MS-9384UZ). The day after plating, cells are treated with a dilution series (e.g., a 9 point 3-fold dilution series) of the compounds herein (e.g., approximately 40 μL final volume per well). Cell viability can be monitored (e.g., approximately 5 days later) according to the manufacturer's recommended instructions, where the CellTiter-Glo reagent is added (e.g., approximately 10 μL), vigorously mixed, covered, and placed on a plate shaker (e.g., approximately for 20 min) to ensure sufficient cell lysis prior to assessment of luminescent signal. The IC50 values are determined using the four parameter fit. The resulting IC50 value is a measurement of the ability of the test compound to reduce cell growth of Ras-driven cells (e.g., tumor cell lines) in vitro and/or in vivo.

K-Ras G12D = molecular target: T4, K-Ras G12D (Homo sapiens, UniProt P01116, G12D); assay: PPI-HTRF assay, K-Ras G12D / SOS1 interaction; type: biochemical; conditions: HTRF, K-Ras G12D; read-out: PPI-HTRF-5 nM (K-Ras G12D IC50)
T4 construct: made in house; host or cells: E. coli, e.g. BL21 (DE3)
Outline: as §1

T2 sequence (P01116 1-188 isoform P01116-2 G12V): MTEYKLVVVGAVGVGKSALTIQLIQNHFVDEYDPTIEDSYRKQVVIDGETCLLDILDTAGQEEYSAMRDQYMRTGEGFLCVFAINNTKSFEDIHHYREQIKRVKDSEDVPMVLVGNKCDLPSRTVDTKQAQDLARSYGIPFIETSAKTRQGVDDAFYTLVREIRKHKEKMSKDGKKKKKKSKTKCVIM
T1 sequence (P01116 1-188 isoform P01116-2): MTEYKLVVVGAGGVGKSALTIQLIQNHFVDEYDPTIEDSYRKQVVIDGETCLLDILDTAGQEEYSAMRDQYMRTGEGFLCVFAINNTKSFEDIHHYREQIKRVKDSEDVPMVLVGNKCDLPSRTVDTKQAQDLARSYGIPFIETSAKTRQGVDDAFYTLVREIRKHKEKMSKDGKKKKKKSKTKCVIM
T3 sequence (P01116 1-188 isoform P01116-2 G12S): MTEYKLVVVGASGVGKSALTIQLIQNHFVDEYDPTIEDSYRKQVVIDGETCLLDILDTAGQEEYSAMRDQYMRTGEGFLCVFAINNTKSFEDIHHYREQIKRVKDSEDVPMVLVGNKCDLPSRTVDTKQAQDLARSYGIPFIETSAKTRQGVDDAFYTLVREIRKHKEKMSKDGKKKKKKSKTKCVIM
T4 sequence (P01116 1-188 isoform P01116-2 G12D): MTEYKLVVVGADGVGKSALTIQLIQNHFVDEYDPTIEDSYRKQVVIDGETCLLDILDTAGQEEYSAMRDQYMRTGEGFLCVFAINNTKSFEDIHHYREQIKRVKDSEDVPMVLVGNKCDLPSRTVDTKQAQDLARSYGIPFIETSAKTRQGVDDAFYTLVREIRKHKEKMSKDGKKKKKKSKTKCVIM

Row | SMILES | IC50 (wildtype K-Ras) | IC50 (K-Ras G12V) | IC50 (SW620 cells) | IC50 (A549 cells) | IC50 (K-Ras G12S) | IC50 (K-Ras G12D) | IC50 (GP2D cells)
1 | N#Cc1c(N)sc2c(F)ccc(-c3c(Cl)c4c5c(nc(OCC67CCCN6C[C@H](F)C7)nc5c3F)N3CCCCC3CCO4)c12 (single isomer, unassigned) [compound 117] | < 5 µM | < 5 µM | < 5 µM | < 5 µM | < 5 µM |  | 
2 | N#Cc1c(N)sc2c(F)ccc(-c3c(Cl)c4c5c(nc(OC[C@@]67CCCN6C[C@H](F)C7)nc5c3F)N3CCC[C@@H]3CC(CO)O4)c12 (single isomer, unassigned) [compound 177] | < 5 µM | < 5 µM | < 5 µM |  | < 5 µM | < 5 µM | < 5 µM
3 | CC1Oc2c(Cl)c(-c3ccc(F)c4sc(N)c(C#N)c34)c(F)c3nc(OC[C@@]45CCCN4C[C@H](F)C5)nc(c23)N(C)C2COCC12 (stereo partly shown) [compound 104] | < 5 µM | < 5 µM | < 5 µM |  | < 5 µM | < 5 µM | < 5 µM
4 | CN(C)CCCN1c2nc(OC[C@@]34CCCN3C[C@H](F)C4)nc3c(F)c(-c4ccc(F)c5sc(N)c(C#N)c45)c(Cl)c(c23)OCC2COCC21 (stereo partly drawn) [compound 209, 2-amino-4-(6-chloro-12-(3-(dimethylamino)propyl)-4-fluoro-2-(((2R,7aS)-2-fluorotetrahydro-1H-pyrrolizin-7a(5H)-yl)methoxy)-8a,9,11a,12-tetrahydro-8H,11H-furo[3′,4′:6,7][1,5]oxazocino[4,3,2-de]quinazolin-5-yl)-7-fluorobenzo[b]thiophene-3-carbonitrile] | < 5 µM | < 5 µM | < 5 µM |  | < 5 µM | < 5 µM | < 5 µM
5 | CN(C)CCN1c2nc(OC[C@@]34CCCN3C[C@H](F)C4)nc3c(F)c(-c4ccc(F)c5sc(N)c(C#N)c45)c(Cl)c(c23)OCC2COCC21 (stereo partly drawn) [compound 106, 2-amino-4-(6-chloro-12-(2-(dimethylamino)ethyl)-4-fluoro-2-(((2R,7aS)-2-fluorotetrahydro-1H-pyrrolizin-7a(5H)-yl)methoxy)-8a,9,11a,12-tetrahydro-8H,11H-furo[3′,4′:6,7][1,5]oxazocino[4,3,2-de]quinazolin-5-yl)-7-fluorobenzo[b]thiophene-3-carbonitrile] | < 5 µM | < 5 µM | < 5 µM |  | < 5 µM | < 5 µM | < 5 µM
6 | N#Cc1c(N)sc2c(F)ccc(-c3c(Cl)c4c5c(nc(OC[C@@]67CCCN6C[C@H](F)C7)nc5c3F)N3C[C@H](NC(=O)[C@H]5CN5)C[C@H]3CO4)c12 [compound 111, (2R)-N-((2R,12aS)-9-(2-amino-3-cyano-7-fluorobenzo[b]thiophen-4-yl)-10-chloro-8-fluoro-6-(((2R,7aS)-2-fluorotetrahydro-1H-pyrrolizin-7a(5H)-yl)methoxy)-2,3,12,12a-tetrahydro-1H-pyrrolo[2′,1′:,4][1,4]oxazepino[5,6,7-de]quinazolin-2-yl)aziridine-2-carboxamide] | < 5 µM | < 5 µM | > 5 µM |  | < 5 µM | < 5 µM | > 5 µM

Now from value to molecule, other results behind:

Row | IC50 (wildtype K-Ras) | IC50 (K-Ras G12V) | IC50 (SW620 cells) | IC50 (A549 cells) | IC50 (K-Ras G12S) | IC50 (K-Ras G12D) | SMILES | IC50 (GP2D cells)
7 | < 5 µM | < 5 µM | < 5 µM |  | < 5 µM | < 5 µM | N#CCCN1c2nc(OC[C@@]34CCCN3C[C@H](F)C4)nc3c(F)c(-c4ccc(F)c5sc(N)c(C#N)c45)c(Cl)c(c23)OCC2COCC21 (stereo partly drawn) [compound 197, 2-amino-4-(6-chloro-12-(2-cyanoethyl)-4-fluoro-2-(((2R,7aS)-2-fluorotetrahydro-1H-pyrrolizin-7a(5H)-yl)methoxy)-8a,9,11a,12-tetrahydro-8H,11H-furo[3′,4′:6,7][1,5]oxazocino[4,3,2-de]quinazolin-5-yl)-7-fluorobenzo[b]thiophene-3-carbonitrile] | < 5 µM
8 | < 5 µM | < 5 µM | < 5 µM | < 5 µM | < 5 µM |  | N#Cc1c(N)sc2c(F)ccc(-c3c(Cl)c4c5c(nc(OC[C@@]67CCCN6C[C@H](F)C7)nc5c3F)N3CCC(C#N)CC3CO4)c12 (single isomer, unassigned) [compound 105] | 
9 | < 5 µM | < 5 µM | > 5 µM |  | < 5 µM | < 5 µM | CNCC(C)N1c2nc(OC[C@@]34CCCN3C[C@H](F)C4)nc3c(F)c(-c4ccc(F)c5sc(N)c(C#N)c45)c(Cl)c(c23)OCC2COCC21 (stereo partly drawn) [compound 109, 2-amino-4-(6-chloro-4-fluoro-2-(((2R,7aS)-2-fluorotetrahydro-1H-pyrrolizin-7a(5H)-yl)methoxy)-12-(1-(methylamino)propan-2-yl)-8a,9,11a,12-tetrahydro-8H,11H-furo[3′,4′:6,7][1,5]oxazocino[4,3,2-de]quinazolin-5-yl)-7-fluorobenzo[b]thiophene-3-carbonitrile] | > 5 µM
10 | < 5 µM | < 5 µM | < 5 µM |  | < 5 µM | < 5 µM | N#Cc1c(N)sc2c(F)ccc(-c3c(Cl)c4c5c(nc(OC[C@@]67CCCN6C[C@H](F)C7)nc5c3F)N(CC(F)F)CC3COCC3O4)c12 (stereo partly drawn) [compound 112, 2-amino-4-(1-chloro-7-(2,2-difluoroethyl)-3-fluoro-5-(((2R,7aS)-2-fluorotetrahydro-1H-pyrrolizin-7a(5H)-yl)methoxy)-7,8,8a,9,11,11a-hexahydrofuro[3′,4′:7,8][1,5]oxazocino [4,3,2-de]quinazolin-2-yl)-7-fluorobenzo[b]thiophene-3-carbonitrile] | > 5 µM
11 | < 5 µM | < 5 µM | < 5 µM |  | < 5 µM | < 5 µM | CN1CC2COCC2Oc2c(Cl)c(-c3ccc(F)c4sc(N)c(C#N)c34)c(F)c3nc(OC[C@@]45CCCN4C[C@H](F)C5)nc1c23 (stereo partly drawn) [compound 113, 2-amino-4-(1-chloro-3-fluoro-5-(((2R,7aS)-2-fluorotetrahydro-1H-pyrrolizin-7a(5H)-yl)methoxy)-7-methyl-7,8,8a,9,11,11a-hexahydrofuro[3′,4′:7,8][1,5]oxazocino[4,3,2-de]quinazolin-2-yl)-7-fluorobenzo[b]thiophene-3-carbonitrile] | < 5 µM
12 | < 5 µM | < 5 µM | < 5 µM |  | < 5 µM | < 5 µM | N#Cc1c(N)sc2c(F)ccc(-c3c(Cl)c4c5c(nc(OC[C@@]67CCCN6C[C@H](F)C7)nc5c3F)NC3COCC3CO4)c12 (stereo partly drawn) [compound 208, 2-amino-4-(6-chloro-4-fluoro-2-(((2R,7aS)-2-fluorotetrahydro-1H-pyrrolizin-7a(5H)-yl)methoxy)-8a,9,11a,12-tetrahydro-8H,11H-furo[3′,4′:6,7][1,5]oxazocino[4,3,2-de]quinazolin-5-yl)-7-fluorobenzo[b]thiophene-3-carbonitrile] | < 5 µM

Source: patent publication US12059425B2, “Heterocyclic compounds and uses thereof” (Kumquat Biosciences Inc., priority 2022, dated 2024)
